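Compound exposure: 48 hours, 5 concentrations, 96-well plates. Abbreviation: GI50, concentration required for 50% inhibition of growth.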 Calls of active or inactive are those of the source. Rule as the data show it: active = GI50 up to about 1.1 µM and inactive = higher. Square brackets hold non-standard residues; d marks the D form. Peptide text beside a SMILES is read from it. * marks the point of attachment. ξ: configuration not given here. Propanoyl(3-(4-MeO-Ph)) = COc1ccc(CCC(=O)*)cc1; Thr(3ξ) = CC(O)[C@H](N)C(=O)O; dNMeL = CN[C@H](CC(C)C)C(=O)O; ξLac = CC(O)C(=O)O
Assays:
Experiment in all cases: inhibition of tumour cell growth, NCI panel, 48 h
[1] = test system: BT-549
[2] = test system: CAKI-1
[3] = test system: CCRF-CEM
[4] = test system: EKVX
[5] = test system: HCT-15
[6] = test system: HL-60
[7] = test system: Hs-578T
[8] = test system: KM12
[9] = test system: LOX IMVI
[10] = test system: MDA-MB-231
[11] = test system: NCI-H522
[12] = test system: NCI/ADR-RES
[13] = test system: OVCAR-4
[14] = test system: RXF 393
[15] = test system: SNB-75
[16] = test system: SR
[17] = test system: T47D
[18] = test system: UACC-257
[19] = test system: UACC-62
[20] = test system: UO-31

| SMILES | GI50 [1] | GI50 [2] | GI50 [3] | GI50 [4] | GI50 [5] [µM] | GI50 [6] | GI50 [7] | GI50 [8] | GI50 [9] | GI50 [10] | GI50 [11] | GI50 [12] | GI50 [13] | GI50 [14] | GI50 [15] | GI50 [16] | GI50 [17] | GI50 [18] | GI50 [19] | GI50 [20] |
| --- | --- | --- | --- | --- | --- | --- | --- | --- | --- | --- | --- | --- | --- | --- | --- | --- | --- | --- | --- | --- |
| O=c1[nH]/c(=C/c2ccc(OCc3ccccc3)cn2)c(=O)[nH]/c1=C/c1ccc(Cl)cc1 | 0.344 µM (active) | 0.45 µM (active) | 3.72 µM (inactive) | > 100 µM (inactive) | 0.469 | 0.726 µM (active) | 0.804 µM (active) | 0.895 µM (active) | > 22.1 µM (inactive) | 46.1 µM (inactive) | 0.723 µM (active) | 5.37 µM (inactive) | 2.42 µM (inactive) | 4.53 µM (inactive) | 1.86 µM (inactive) | 0.301 µM (active) | > 100 µM (inactive) | 1 µM (active) | 1.94 µM (inactive) | 2.7 µM (inactive) |
| CC(=O)NNc1nc(C)c(C(/C=C/c2ccc3c(c2)OCO3)=N/NC(=O)c2ccncc2)s1 | > 100 µM (inactive) | > 100 µM (inactive) | > 100 µM (inactive) | 62.5 µM (inactive) | > 100 | > 100 µM (inactive) | > 100 µM (inactive) | > 100 µM (inactive) | > 100 µM (inactive) | > 100 µM (inactive) | > 100 µM (inactive) | > 100 µM (inactive) | > 100 µM (inactive) | > 100 µM (inactive) | > 100 µM (inactive) | > 100 µM (inactive) | > 100 µM (inactive) | > 100 µM (inactive) | > 100 µM (inactive) | > 100 µM (inactive) |
| COc1ccc(C2N(c3ccc(F)c([N+](=O)[O-])c3)C(=O)N3C(c4ccc(OC)cc4)N(c4ccc(F)c([N+](=O)[O-])c4)C(=O)N23)cc1 (stereo not given) | > 100 µM (inactive) | > 100 µM (inactive) | > 100 µM (inactive) | > 100 µM (inactive) | > 100 | > 100 µM (inactive) | > 100 µM (inactive) | > 100 µM (inactive) | > 100 µM (inactive) | 57.1 µM (inactive) | > 100 µM (inactive) | > 100 µM (inactive) | > 100 µM (inactive) | > 100 µM (inactive) | > 100 µM (inactive) | > 100 µM (inactive) | > 100 µM (inactive) | > 100 µM (inactive) | > 100 µM (inactive) | > 100 µM (inactive) |
| CC1(C)[C@@H]2C[C@H]1c1cnc(-c3ccccn3)cc1[C@H]2C(O)[C@@H]1c2cc(-c3ccccn3)ncc2[C@H]2C[C@@H]1C2(C)C (stereo not given in full) | 0.184 µM (active) | 0.106 µM (active) | < 0.0222 µM (active) | 0.165 µM (active) | 0.0718 | 0.0212 µM (active) | 6.93 µM (inactive) | 0.769 µM (active) | 0.0272 µM (active) | 0.338 µM (active) | 0.142 µM (active) | 0.101 µM (active) | 0.0618 µM (active) | 0.198 µM (active) | 0.773 µM (active) | 0.0309 µM (active) | 0.505 µM (active) | 0.396 µM (active) | 0.247 µM (active) | 0.0785 µM (active) |
| O=c1[nH]c2ccccc2nc1CBr | 9.27 µM (inactive) | 7.33 µM (inactive) | 0.399 µM (active) | 3.3 µM (inactive) | 8.95 | 0.213 µM (active) | 12.1 µM (inactive) | 2.56 µM (inactive) | 0.912 µM (active) | 11.2 µM (inactive) | 0.638 µM (active) | 19.7 µM (inactive) | 4.62 µM (inactive) | 1.82 µM (inactive) | 12.8 µM (inactive) | 0.415 µM (active) | 12.5 µM (inactive) | 13.2 µM (inactive) | 8.11 µM (inactive) | 3.87 µM (inactive) |
| Nc1nc(NCCCO)cc(=O)[nH]1 | > 100 µM (inactive) | > 100 µM (inactive) | > 100 µM (inactive) | > 100 µM (inactive) | > 100 | > 100 µM (inactive) | > 100 µM (inactive) | > 100 µM (inactive) | > 100 µM (inactive) | > 100 µM (inactive) | > 100 µM (inactive) | > 100 µM (inactive) | > 100 µM (inactive) | > 100 µM (inactive) | > 100 µM (inactive) | > 100 µM (inactive) | > 100 µM (inactive) | > 100 µM (inactive) | > 100 µM (inactive) | > 100 µM (inactive) |
| COC(=O)[C@@H](NC(=O)[C@@H](CC(C)C)N(C)C(=O)[C@@H]1CCCN1C(=O)C(C)O)C(C)OC(=O)CCc1ccc(OC)cc1 (stereo not given in full) (H-[ξLac]P[dNMeL][Thr(3ξ)](Propanoyl(3-(4-MeO-Ph)))-OMe) | > 100 µM (inactive) | > 100 µM (inactive) | > 100 µM (inactive) | > 100 µM (inactive) | > 100 | > 100 µM (inactive) | > 100 µM (inactive) | > 100 µM (inactive) | > 100 µM (inactive) | > 100 µM (inactive) | > 100 µM (inactive) | > 100 µM (inactive) | > 100 µM (inactive) | > 100 µM (inactive) | > 100 µM (inactive) | > 100 µM (inactive) | > 100 µM (inactive) | > 100 µM (inactive) | > 100 µM (inactive) | > 100 µM (inactive) |
| Nc1nc(Cl)cc(NCC2(O)CCC2)n1 | > 100 µM (inactive) | > 100 µM (inactive) | > 10 µM (inactive) | > 100 µM (inactive) | > 100 | > 100 µM (inactive) | > 100 µM (inactive) | > 100 µM (inactive) | > 100 µM (inactive) | > 100 µM (inactive) | > 100 µM (inactive) | > 100 µM (inactive) | > 100 µM (inactive) | > 100 µM (inactive) | > 100 µM (inactive) | > 100 µM (inactive) | > 100 µM (inactive) | > 100 µM (inactive) | > 100 µM (inactive) | 56.5 µM (inactive) |
| O=[N+]([O-])c1ccc(S(=O)(=O)Cc2ccccc2)c([N+](=O)[O-])c1 | 2.1 µM (inactive) | 1.72 µM (inactive) | 0.17 µM (active) | 1.87 µM (inactive) | 1.82 | 1.91 µM (inactive) | 4.12 µM (inactive) | 7.38 µM (inactive) | 1.79 µM (inactive) | 2.11 µM (inactive) | 0.748 µM (active) | 3.21 µM (inactive) | 2.2 µM (inactive) | 1.75 µM (inactive) | 7.48 µM (inactive) | 0.247 µM (active) | 1.35 µM (inactive) | 1.67 µM (inactive) | 2.24 µM (inactive) | 1.58 µM (inactive) |
| N#Cc1sc2c(c1OC(=O)c1ccccc1)c(=O)n(-c1ccccc1)c(=S)n2-c1ccccc1 | 23.8 µM (inactive) | 35.9 µM (inactive) | 19.8 µM (inactive) | 28.6 µM (inactive) | 18.2 | 24.4 µM (inactive) | 14.8 µM (inactive) | 19.5 µM (inactive) | 19.8 µM (inactive) | 23.9 µM (inactive) | 13.8 µM (inactive) | 21 µM (inactive) | 21.7 µM (inactive) | 14.3 µM (inactive) | > 10 µM (inactive) | 30.8 µM (inactive) | 16.2 µM (inactive) | 35.7 µM (inactive) | 19.9 µM (inactive) | 18.3 µM (inactive) |
